Measured values taken from US12611406B2, “Oxopiperazine derivatives for the treatment of cancer” (Inthera Bioscience AG, priority 2020, dated 2026).

Experiments:
22Rv1 = assay: Caspase 3/7 activation (apoptosis); type: cell-based; set-up: key: “+” (present); “−” (absent); settings: Rb wt, p53 wt
Excerpt: (§1) It was noted that cancer cell lines that were growth inhibited at lower concentrations of Compound 1 more frequently responded to Compound 1 exposure with an apoptotic reaction (FIG. 2). Since PC cell lines were among the cancer cell types displaying a particularly high sensitivity to Compound 1 treatment (FIG. 1), the potentially underlying biological reasons for an apoptotic response were investigated in a set of PC cell lines consisting of DU-145, LNCaP, 22Rv1 and PC3 cells.
(§2) In table 1, “wt”=wild-type; “x”=cells harboring Rb and p53 deficiencies; “+” (present) or “−” (absent) indicate the arrest (i.e. accumulation) of cells in S-phase triggered by Compound 1, which coincided with accumulation of the DNA damage marker phosphorylated gamma H2AX (γH2AX; see FIG. 3A). These events are followed by activation of caspases 3 and 7 as indicators of cell apoptosis as indicated by “+” (present) or “−” (absent). In cancer cells with intact Rb and/or p53 functions (wt=wild-type), Compound 1 induced growth arrest but not a substantial increase of cells in S-phase (=S-phase arrest). Upon release of treatment, such cells are able to proliferate again.

BT-549 = assay: Caspase 3/7 activation (apoptosis); type: cell-based; set-up: key: “+” (present); “−” (absent); settings: Rb x, p53 x
Excerpt: as §1, §2

DU-145 = assay: Caspase 3/7 activation (apoptosis); type: cell-based; set-up: key: “+” (present); “−” (absent); settings: Rb x, p53 x
Excerpt: as §1, §2

Hut-78 = assay: Caspase 3/7 activation (apoptosis); type: cell-based; set-up: key: “+” (present); “−” (absent); settings: Rb x, p53 x
Excerpt: as §1, §2

LNCaP = assay: Caspase 3/7 activation (apoptosis); type: cell-based; set-up: key: “+” (present); “−” (absent); settings: Rb wt, p53 wt
Excerpt: as §1, §2

NCI-H146 = assay: Caspase 3/7 activation (apoptosis); type: cell-based; set-up: key: “+” (present); “−” (absent); settings: Rb x, p53 x
Excerpt: as §1, §2

NCI-H209 = assay: Caspase 3/7 activation (apoptosis); type: cell-based; set-up: key: “+” (present); “−” (absent); settings: Rb x, p53 x
Excerpt: as §1, §2

NCI-H660 = assay: Caspase 3/7 activation (apoptosis); type: cell-based; set-up: key: “+” (present); “−” (absent); settings: Rb x, p53 x
Excerpt: as §1, §2

NCI-H69 = assay: Caspase 3/7 activation (apoptosis); type: cell-based; set-up: key: “+” (present); “−” (absent); settings: Rb x, p53 x
Excerpt: as §1, §2

NCI-H82 = assay: Caspase 3/7 activation (apoptosis); type: cell-based; set-up: key: “+” (present); “−” (absent); settings: Rb x, p53 x
Excerpt: as §1, §2

PC3 = assay: Caspase 3/7 activation (apoptosis); type: cell-based; set-up: key: “+” (present); “−” (absent); settings: Rb wt, p53 x
Excerpt: as §1, §2

SCLC-21H = assay: Caspase 3/7 activation (apoptosis); type: cell-based; set-up: key: “+” (present); “−” (absent); settings: Rb x, p53 x
Excerpt: as §1, §2

Y-79 = assay: Caspase 3/7 activation (apoptosis); type: cell-based; set-up: key: “+” (present); “−” (absent); settings: Rb x, p53 wt
Excerpt: as §1, §2

[1] = Single dose oral and intravenous PK in CD-1 mice (mesylate salt), blood; type: in vivo; set-up: AUC(0-t) / AUC(0-inf): unit not given here; settings: male, CD-1, mouse, whole blood
Protocol: These studies analyzed the PK profile of Compound 1 following a single oral gavage or single intravenous dose to CD-1 mice.
Compound 1 (mesylate salt) was administered to four groups of male mice (n=4/group) as a single oral (po) gavage administration at dose levels of 5, 10, 20, and 50 mg/kg/adm or as single intravenous (IV) dose at 5 and 50 mg/kg/adm. The vehicle was 1% methylcellulose with 0.1% Tween-80 in study AMP800 and 5% dextrose in water in study AMP799. Blood samples were collected at pre-dose, 10 minutes, 40 minutes, 2, 4, and 7 hours after administration for analysis of Compound 1 concentrations in blood by liquid chromatography—tandem mass spectroscopy (LC-MS/MS) and subsequent calculation of PK parameters.

[2] = 5 consecutive days oral toxicity study in CD-1 mice; type: in vivo; settings: 30 mg/kg/day orally once daily for 5 consecutive days
Protocol: The toxicity of Compound 1 was assessed for several dosing regimens for CD-1 mice, Beagle dogs, and cynomolgus monkeys.

For `CC(C)C[C@@H]1NCCN([C@@H](CC(C)C)C(=O)N2CCC3(C[C@@H]2C)OCC(CN2CCCC2)CO3)C1=O` (stereo partly drawn) [Compound 1, (S)-3-isobutyl-1-((S)-4-methyl-1-((S)-8-methyl-3-(pyrrolidin-1-ylmethyl)-1,5-dioxa-9-azaspiro[5.5]undecan-9-yl)-1-oxopentan-2-yl)piperazin-2-one], the “Caspase 3/7, 8” value (22Rv1) was “−”, the “Caspase 3/7, 8” value (BT-549) was “+” and the “Caspase 3/7, 8” value (DU-145) was “+”. The “Caspase 3/7, 8” value (Hut-78) was “+”, the “Caspase 3/7, 8” value (LNCaP) was “−” and the “Caspase 3/7, 8” value (NCI-H146) was “+”. The “Caspase 3/7, 8” value (NCI-H209) was “+”, the “Caspase 3/7 activation” value (NCI-H660) was “+” and the “Caspase 3/7, 8” value (NCI-H69) was “+”. For the same molecule, the “Caspase 3/7, 8” value (NCI-H82) was “+”, the “Caspase 3/7, 8” value (PC3) was “−” and the “Caspase 3/7, 8” value (SCLC-21H) was “+”. The “Caspase 3/7, 8” value (Y-79) was “−”, the AUC(0-inf) ([1]; intravenous 5 mg/kg) was 1.11 and the AUC(0-t) ([1]; intravenous 5 mg/kg) was 1.03. The Tmax ([1]; intravenous 5 mg/kg) was 0.17 h, the half-life ([1]; intravenous 5 mg/kg) was 2.3 h and the AUC(0-inf) ([1]; intravenous 50 mg/kg) was 13. The AUC(0-t) ([1]; intravenous 50 mg/kg) was 12.2, the Tmax ([1]; intravenous 50 mg/kg) was 0.17 h and the half-life ([1]; intravenous 50 mg/kg) was 1.6 h. It also gave an AUC(0-inf) ([1]; oral 5 mg/kg) of 0.246, an AUC(0-t) ([1]; oral 5 mg/kg) of 0.179 and a Tmax ([1]; oral 5 mg/kg) of 0.17 h. The half-life ([1]; oral 5 mg/kg) was 4 h, the AUC(0-inf) ([1]; oral 10 mg/kg) was 0.471 and the AUC(0-t) ([1]; oral 10 mg/kg) was 0.31. The Tmax ([1]; oral 10 mg/kg) was 0.17 h, the half-life ([1]; oral 10 mg/kg) was 5.6 h and the AUC(0-inf) ([1]; oral 20 mg/kg) was 2.49. For the same molecule, the AUC(0-t) ([1]; oral 20 mg/kg) was 1.97, the Tmax ([1]; oral 20 mg/kg) was 0.17 h and the half-life ([1]; oral 20 mg/kg) was 3.2 h. For the same molecule, the AUC(0-inf) ([1]; oral 50 mg/kg) was 3.38, the AUC(0-t) ([1]; oral 50 mg/kg) was 2.88 and the Tmax ([1]; oral 50 mg/kg) was 0.67 h. For the same molecule, the half-life ([1]; oral 50 mg/kg) was 2.6 h and the tolerability [2] was “well-tolerated”.
